The values that follow are results of earlier work, collected in US20120231996A1, “Phalloidin derivatives and methods for their synthesis” (priority 2006, published 2012).

The test system of one data set is actin. The following applies: in solution.
Data set [1] concerns filamentous actin (F-actin).

Numbered stars: 1 amine (or outer) side, 2 acyl side, 3 side chain; on linkers, the order of the positions; unused ones are H or OH. Bridge positions count the residues as written; N and C are the ends. Square brackets hold non-standard residues; d marks the D form. Peptide text beside a SMILES is read from it. Trp(2-yl) = O=C([C@H](Cc1c([*:3])[nH]c2ccccc12)N[*:1])[*:2]; Leu(4R-OH,5-OH) = C[C@](O)(CO)C[C@H](N)C(=O)O; cisHyp = O=C(O)[C@@H]1C[C@H](O)CN1

Consider `C[C@@H]1NC(=O)[C@H](C[C@@](C)(O)CO)NC(=O)[C@@H]2Cc3c([nH]c4ccccc34)SC[C@H](NC(=O)[C@@H]([C@H](C)O)NC1=O)C(=O)N1C[C@@H](O)C[C@H]1C(=O)N[C@@H](C)C(=O)N2` [Phalloidin] (cyclo(A[dT]C[cisHyp]A[Trp(2-yl)][Leu(4R-OH,5-OH)]); thioether 3-6), for which the “Effect on critical concentration of actin polymerization” value in the data set with actin is “lowers the critical concentration of actin polymerization”. Also, the “Affinity of binding to filamentous actin” value in data set [1] is given as “binds with high affinity”.
